Source: the supplement of paper PMC10307832

Columns and labels:
Experiment in all cases: relative viability (nuclei count vs DMSO), 5 days (fraction); higher = more cells survive
KIN001-266 + AZD7762 = compound: CCN1CCC(CC1)N2C=C(N=N2)CNC3=CC4=C(C(=CN=C4C(=C3)Cl)C#N)NC5=CC(=C(C=C5)F)Cl [KIN001-266] + NC(=O)Nc1cc(-c2cccc(F)c2)sc1C(=O)N[C@H]1CCCNC1 [AZD7762] (partner 0.2 µM)
How it was run: (§1)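 Lung cancer cell lines in 1536-well plates got either a single drug or a fixed anchor-drug dose together with five library-drug doses (not always all listed) in √10 steps, by pin tool, on the day after seeding. Nuclei were counted after 5 days, and relative viability is the treated-to-vehicle ratio of nuclei counts. Values are medians of duplicate plates.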

KIN001-266 + Phenformin = compound: CCN1CCC(CC1)N2C=C(N=N2)CNC3=CC4=C(C(=CN=C4C(=C3)Cl)C#N)NC5=CC(=C(C=C5)F)Cl [KIN001-266] + N=C(N)NC(=N)NCCc1ccccc1 [Phenformin] (partner 250 µM)
How it was run: as §1

KIN001-266 + Pictilisib = compound: CCN1CCC(CC1)N2C=C(N=N2)CNC3=CC4=C(C(=CN=C4C(=C3)Cl)C#N)NC5=CC(=C(C=C5)F)Cl [KIN001-266] + CS(=O)(=O)N1CCN(Cc2cc3nc(-c4cccc5[nH]ncc45)nc(N4CCOCC4)c3s2)CC1 [Pictilisib] (partner 1 µM)
How it was run: as §1

KIN001-266 + Alpelisib = compound: CCN1CCC(CC1)N2C=C(N=N2)CNC3=CC4=C(C(=CN=C4C(=C3)Cl)C#N)NC5=CC(=C(C=C5)F)Cl [KIN001-266] + Cc1nc(NC(=O)N2CCC[C@H]2C(N)=O)sc1-c1ccnc(C(C)(C)C(F)(F)F)c1 [Alpelisib] (partner 2 µM)
How it was run: as §1

Cell Line | relative viability (KIN001-266 + AZD7762; first compound 0.08 µM) | relative viability (KIN001-266 + AZD7762; first compound 0.253 µM) | relative viability (KIN001-266 + AZD7762; first compound 0.8 µM) | relative viability (KIN001-266 + AZD7762; first compound 2.53 µM) | relative viability (KIN001-266 + AZD7762; first compound 8 µM) | relative viability (KIN001-266 + Phenformin; first compound 0.08 µM) | relative viability (KIN001-266 + Phenformin; first compound 0.253 µM) | relative viability (KIN001-266 + Phenformin; first compound 0.8 µM) | relative viability (KIN001-266 + Phenformin; first compound 2.53 µM) | relative viability (KIN001-266 + Phenformin; first compound 8 µM) | relative viability (KIN001-266 + Pictilisib; first compound 0.08 µM) | relative viability (KIN001-266 + Pictilisib; first compound 0.253 µM) | relative viability (KIN001-266 + Pictilisib; first compound 0.8 µM) | relative viability (KIN001-266 + Pictilisib; first compound 2.53 µM) | relative viability (KIN001-266 + Pictilisib; first compound 8 µM) | relative viability (KIN001-266 + Alpelisib; first compound 0.08 µM) | relative viability (KIN001-266 + Alpelisib; first compound 0.253 µM) | relative viability (KIN001-266 + Alpelisib; first compound 0.8 µM) | relative viability (KIN001-266 + Alpelisib; first compound 2.53 µM) | relative viability (KIN001-266 + Alpelisib; first compound 8 µM)
LCLC-103H | 0.814 | 0.843 | 0.82 | 0.791 | 0.73 | 0.389 | 0.28 | 0.285 | 0.361 | 0.332 | 0.618 | 0.693 | 0.71 | 0.676 | 0.605 | 0.906 | 0.975 | 0.951 | 0.972 | 0.808
LK-2 | 0.505 | 0.292 | 0.19 | 0.143 | 0.219 | 0.538 | 0.352 | 0.342 | 0.281 | 0.288 | 0.563 |  | 0.537 |  | 0.551 | 1.3 |  | 1.17 |  | 1.11
LOU-NH91 | 0.785 | 0.617 | 0.711 | 0.711 | 0.734 | 0.716 | 0.737 | 0.489 | 0.637 | 0.552 | 0.542 | 0.533 | 0.443 | 0.469 | 0.505 | 0.735 | 0.724 | 0.501 | 0.676 | 0.588
LU99A | 0.367 | 0.384 | 0.299 | 0.257 | 0.272 | 0.971 | 0.805 | 0.815 | 0.649 | 0.682 | 0.325 | 0.338 | 0.319 | 0.3 | 0.284 | 0.66 | 0.606 | 0.442 | 0.438 | 0.442
LXF-289 | 0.996 | 1.04 | 1.09 | 1.09 | 1.19 | 0.497 | 0.522 | 0.497 | 0.534 | 0.54 | 0.791 | 0.786 | 0.755 | 0.767 | 0.799 | 1.05 | 1.03 | 1.01 | 1.05 | 1.03
NCI-H23 | 0.195 | 0.249 | 0.304 | 0.22 | 0.246 | 0.826 | 0.715 | 0.772 | 0.722 | 0.73 | 0.494 | 0.557 | 0.458 | 0.351 | 0.469 | 0.768 | 0.646 | 0.733 | 0.663 | 0.695
NCI-H322M | 0.63 | 0.64 | 0.612 | 0.451 | 0.544 | 0.841 | 0.835 | 0.822 | 0.743 | 0.747 | 0.593 | 0.713 | 0.451 | 0.456 | 0.484 | 0.648 | 0.87 | 0.8 | 0.694 | 0.689
NCI-H358 | 0.574 | 0.459 | 0.41 | 0.547 | 0.474 | 0.361 | 0.367 | 0.343 | 0.277 | 0.251 | 0.382 | 0.355 | 0.343 | 0.3 | 0.316 | 0.825 | 0.774 | 0.981 | 0.831 | 0.43
NCI-H441 | 0.941 | 1.2 | 1.11 | 1.07 | 1.19 | 0.937 | 0.837 | 0.806 | 0.805 | 0.641 | 0.559 | 0.381 | 0.481 | 0.459 | 0.415 | 0.75 | 0.822 | 0.73 | 0.793 | 0.496
NCI-H460 | 0.543 | 0.679 | 0.681 | 0.554 | 0.524 | 0.499 | 0.506 | 0.528 | 0.475 | 0.433 | 0.5 | 0.339 | 0.308 | 0.355 | 0.302 | 0.609 | 0.581 | 0.484 | 0.485 | 0.413
NCI-H596 | 1.2 | 0.931 | 1.17 | 0.936 | 1.04 | 0.718 | 0.805 | 0.686 | 0.721 | 0.677 | 0.407 | 0.401 | 0.385 | 0.4 | 0.38 | 0.492 | 0.445 | 0.431 | 0.534 | 0.398
NCI-H647 | 0.432 | 0.366 | 0.568 | 0.431 | 0.434 | 0.65 | 0.552 | 0.557 | 0.468 | 0.426 | 0.461 | 0.405 | 0.491 | 0.282 | 0.414 | 1.29 | 1.3 | 1.11 | 1.11 | 0.928
NCI-H650 | 1.09 | 1.17 | 1 | 1.08 | 1.23 | 0.499 | 0.503 | 0.495 | 0.463 | 0.507 | 0.924 | 0.899 | 0.917 | 0.921 | 0.908 | 1.12 | 1.08 | 1.33 | 1.09 | 1.14
NCI-H727 | 0.514 | 0.554 | 0.518 | 0.494 | 0.649 | 0.612 | 0.615 | 0.509 | 0.595 | 0.364 | 0.389 | 0.351 | 0.327 | 0.264 | 0.304 | 0.585 | 0.567 | 0.622 | 0.597 | 0.329
NCI-H838 | 0.945 | 0.83 | 0.886 | 0.914 | 0.924 | 0.668 | 0.624 | 0.595 | 0.574 | 0.427 | 0.521 | 0.423 | 0.515 | 0.304 | 0.238 | 1.04 | 0.998 | 1.05 | 0.966 | 0.694
NCI-H1355 | 0.771 | 0.734 | 0.73 | 0.556 | 0.521 | 0.454 | 0.419 | 0.441 | 0.414 | 0.373 | 0.481 | 0.408 | 0.399 | 0.303 | 0.378 | 0.854 | 0.783 | 0.912 | 0.737 | 0.764
